# Results published in article PMC8472459, “In Vitro Phenotypic Activity and In Silico Analysis of Natural Products from Brazilian Biodiversity on Trypanosoma cruzi” (Molecules, 2021).
# “And” between values parts separate entries of the source, which are not always exact repeats. Identical values can stand only once. Like-named read-outs stand apart in the source and are kept apart here.
# What was measured:
# [1] = system: L929 cell lines; assay: in vitro; type: cell-based
# Protocol: (§1) Primary cardiac cell cultures (CC) were obtained from Swiss Webster mice embryo hearts (18 gestation days) as described by Meirelles et al. and were used for toxicity assays. After purification, the cardiac cells were seeded (0.5 × 10^5 cells/well) in 96 wells microplates previously coated with 0.01% gelatin. The cardiac cultures were maintained in Dulbecco’s Modified Eagle’s Medium supplemented with 6% of FBS, 2.5 mM CaCl2, 1 mM L-glutamine, 1mM penicillin and 2% chicken embryo extract. Mice fibroblast of the line NTCL clone 929 (L929) were used for toxicity and anti-T. cruzi activity assays. L929 cells were seeded (4 × 10^3 cells/well) in 96 well microplates and kept in RPMI-1640 medium (Sigma-Aldrich, Missouri, EUA) supplemented with 10% FBS, 1% L-glutamine and 1% penicillin. The cell cultures were maintained at 37 °C at 5% CO2.
# (§2) Cell viability was assessed using PrestoBlue (for assay with CC) and AlamarBlue (for assays with L929) with fluorescence and absorbance readouts (560–590 and 570–600 nm, respectively) in a spectrophotometer (Tunable microplates reader VersaMax; Molecular Devices). Additionally, cell morphology aspects were evaluated in a light microscope, as well as the contractability, density and cytoplasmic vacuolization. Cell viability rates were then determined by the LC50 values that correspond to the compound concentration able to reduce in 50% the viability of the cell population.
# [2] = in vitro; type: cell-based
# Protocol: as §1, §2
# [3] = system: bloodstream trypomastigotes of T. cruzi (Y strain); assay: Activity against bloodstream trypomastigotes (Y strain), light microscopy count of live parasites; type: cell-based, Trypanosoma cruzi; settings: for SI (Selectivity Index), bloodstream trypomastigotes: LC50 cardiac cell cultures / EC50 bloodstream trypomastigotes
# Protocol: In addition, the activity of both natural products was also evaluated against bloodstream trypomastigotes (BT), another relevant form of T. cruzi in mammalian hosts (Table 2). […] As cardiomyopathy is one of the main chronic symptoms of CD, next, the cardiotoxicity profile was assessed using primary cultures of mouse cardiac cells (CC) incubated with increasing concentration of both biomolecules and Bz. After […] of incubation with both extracts, no evident cardiac alterations related to cellular density and morphology was observed by light microscopy.
# Bloodstream trypomastigotes (BT) of the T. cruzi Y strain (DTU II) were obtained by cardiac punction from Swiss Webster mice during the parasitemia peak and the purified parasites were resuspended in Dulbecco’s modified Eagle medium (DMEM) (Cultilab) supplemented with 10% fetal bovine serum (FBS).
# [4] = system: intracellular forms of T. cruzi (Tulahuen strain); assay: Activity against intracellular forms of T. cruzi (Tulahuen-β gal strain) in infected L929 cell lines, CPRG readout; type: cell-based, Trypanosoma cruzi; settings: for SI (Selectivity Index), intracellular forms: LC50 L929 / EC50 intracellular forms; for inhibition at 10 µM / EC50: Trypanosoma cruzi
# Protocol: The crude extracts and the resulting fractions were evaluated following a well standardized protocol of phenotypic analysis for novel drug candidates for CD [25]. The first approach was the screening against intracellular amastigotes (Tulahuen-β gal strain, DTU VI) using a fixed concentration of 10 µg/mL, which corresponds to the 90% effective concentration (EC90)value of the reference drug (Bz) for CD (Table 1). The leaves fraction using dichloromethane from Aureliana fasciculata var. fasciculata (AFfPD) sterilized T. cruzi infection in L929 cell lines, leading to 100% of infection reduction. […] Natural products from fruit pulp of C. cujete have no trypanocidal effect at a concentration of 10 µg/mL.
# Culture derived trypomastigotes of Tulahuen strain (DTU VI), transfected with the β-galactosidase gene from Escherichia coli, were collected from the supernatant of previously infected L929 fibroblasts. Trypomastigotes were used to infect L929 cultures at a ratio of 10:1 (parasites/host cell) to determine activity against intracellular forms. After 2 h of interaction, the cultures were washed for the removal of remaining parasites and incubated for 48 h to ensure the establishment of the infection. On the first set of assays, the compounds were added in a fixed concentration (10 µg/mL or 10 µM for the extracts and purified fractions, respectively) that corresponds to EC90 of Bz. The non-infected cells (controls) were treated with DMSO and Bz and were also evaluated. The compounds that reached the same or higher activity than Bz were later evaluated in assays with increasing concentrations (serially diluted (7-fold): 0–50 µg/mL for extracts and fractions and 0–50 µM for purified compounds and Bz) for the determination of the EC50 and EC90 values (minimal concentration able to reduce to 50% and 90% of the infection index in cultures). In both assays the cultures were maintained at 37 °C for 96 h to enable the calculation of the inhibition percentage on the infection. Thereafter, 500 μM of substrate CPRG (chlorophenol red-β-D-galactopiranosideo) in 0.5% Nonidet P40 (Sigma-Aldrich, St. Louis, MO, United States) were added to the in vitro system. The plates were incubated for 18 h at 37 °C and, following, the absorbance was measured at 570 nm. […] All the assays were conducted in duplicate at least three times.
# [5] = Cardiotoxicity, primary cardiac cell cultures (PrestoBlue, light microscopy); type: cell-based; settings: Swiss Webster, mouse
# Protocol: as §1, §2
# [6] = system: L. amazonensis infected macrophages; parameters: method as in PMID 30513673; settings: cited from earlier work; for EC50: read-out: EC50 upon infected macrophages
# [7] = system: promastigotes of L. amazonensis; parameters: method as in PMID 30513673; settings: cited from earlier work
# [8] = system: cell-derived trypomastigotes; parameters: method as in PMID 28177047; settings: cited from earlier work
# [9] = Trypanosoma cruzi, 2 h, read-out: EC50 bloodstream trypomastigotes, 2 h, Y strain
# [10] = Trypanosoma cruzi, 24 h, read-out: EC50 bloodstream trypomastigotes, 24 h, Y strain
# [11] = Trypanosoma cruzi, 24 h, read-out: EC90 bloodstream trypomastigotes
# [12] = TULAHUEN, L929, 96 h, read-out: % of Infection Reduction, 10 μM, 96 h of incubation, L929 cell line infected with Tulahuen strain
# [13] = TULAHUEN, L929, 96 h, read-out: EC50 intracellular forms
# [14] = Trypanosoma cruzi, 2 h, Y strain, read-out: EC50 bloodstream trypomastigotes
# [15] = Trypanosoma cruzi, 24 h, Y strain, read-out: EC50 bloodstream trypomastigotes
# [16] = Trypanosoma cruzi, 24 h, Y strain, read-out: EC90 bloodstream trypomastigotes
# [17] = TULAHUEN, L929, 96 h, 10 μM, 96 h of incubation, L929 cell line infected with Tulahuen strain, read-out: % of Infection Reduction
# [18] = 96 h, Tulahuen strain, L929 host cells, read-out: EC50 intracellular forms
compound,measurement,setting,value
"O=C(Cn1ccnc1[N+](=O)[O-])NCc1ccccc1 [Bz, Benznidazole, reference compound]",LC50 L929 cell lines,[1],not toxic up to the higher tested concentration
same,CC50 at 96 h,[2]; mouse,> 200 µg/mL and > 200 µM
same,"SI (Selectivity Index), bloodstream trypomastigotes","[3]; 24 h, µM data",>57.1
same,"SI (Selectivity Index), bloodstream trypomastigotes","[3]; 24 h, μg/mL data",>83
same,EC50,"[3]; Trypanosoma cruzi, 2 h, read-out: EC50 bloodstream trypomastigotes (Y strain), 2 h",> 50 µg/mL
same,EC50,[3]; [9],> 50 µM
same,EC90,"[3]; Trypanosoma cruzi, 2 h, read-out: EC90 bloodstream trypomastigotes (Y strain)",> 50 µg/mL
same,EC50,"[3]; Trypanosoma cruzi, 24 h, read-out: EC50 bloodstream trypomastigotes (Y strain), 24 h",10.2 ± 0.3 µg/mL
same,EC50,[3]; [10],13.1 ± 3.9 µM
same,EC90,[3]; [11],31.3 ± 8.8 µM
same,EC90,"[3]; Trypanosoma cruzi, 24 h, read-out: EC90 bloodstream trypomastigotes (Y strain)",23.3 ± 0.6 µg/mL
same,"SI (Selectivity Index), intracellular forms","[4]; 96 h, µM data",>66.6
same,"SI (Selectivity Index), intracellular forms","[4]; 96 h, μg/mL data",> 52
same,inhibition at 10 µM,[4]; [12],92 ± 7%
same,EC50,[4]; [13],3 ± 0.6 µM
same,EC50,"[4]; TULAHUEN, L929, 96 h, read-out: EC50 intracellular forms (Tulahuen strain)",3.8 ± 1.8 µg/mL
same,% of Infection Reduction after 96 h of Incubation,"[4]; fixed concentration of 10 µg/mL, L929 cell lines infected with Tulahuen strain, 96 h",90.5 ± 5.7%
same,CC50 at 24 h,[5],> 750 µg/mL and > 750 µM
"CC(=O)O[C@@H]1CC2C3C[C@H]4O[C@]45[C@@H](O)C=CC(=O)[C@]5(C)C3CC[C@]2(C)[C@@]1(O)[C@H](C)C1CC(C)=C(C)C(=O)O1 (stereo partly shown) [Compound 1, Aurelianolide A]",CC50 at 96 h,[2]; mouse,42.1 ± 28.3 µM
same,"SI (Selectivity Index), bloodstream trypomastigotes","[3]; 24 h, µM data",2.9
same,EC50,[3]; [14],> 50 µM
same,EC50,[3]; [15],5.68 ± 2.3 µM
same,EC90,[3]; [16],8.33 ± 3.9 µM
same,"selectivity indexes, infected macrophages",[6],5.6
same,EC50,[6],2.3 µM
same,"SI (Selectivity Index), intracellular forms","[4]; 96 h, µM data",9.15
same,inhibition at 10 µM,[4]; [17],> 90%
same,EC50,[4]; [18],4.6 ± 1.3 µM
same,activity against promastigotes of L. amazonensis,[7],active
same,CC50 at 24 h,[5],16.4 ± 1.3 µM
"CC(=O)O[C@@H]1CC2C3CC=C4[C@@H](O)C=CC(=O)[C@]4(C)C3CC[C@]2(C)[C@@]1(O)[C@H](C)C1CC(C)=C(C)C(=O)O1 (stereo partly shown) [Compound 2, Aurelianolide B]",CC50 at 96 h,[2]; mouse,27.4 ± 1 µM
same,"SI (Selectivity Index), bloodstream trypomastigotes","[3]; 24 h, µM data",5.4
same,EC50,[3]; [14],> 50 µM
same,EC50,[3]; [15],5.72 ± 1.3 µM
same,EC90,[3]; [16],9.25 ± 3.2 µM
same,"selectivity indexes, infected macrophages",[6],2.0
same,EC50,[6],6.43 µM
same,"SI (Selectivity Index), intracellular forms","[4]; 96 h, µM data",17.1
same,inhibition at 10 µM,[4]; [17],> 90%
same,EC50,[4]; [18],1.6 ± 0.4 µM
same,activity against promastigotes of L. amazonensis,[7],active
same,CC50 at 24 h,[5],30.9 ± 3.8 µM
"C[C@H]1[C@@H](O)CCC2[C@]3(C)CC[C@@]4(C)C5CC(C)(C)CC[C@]5(C)CC[C@]4(C)C3CC[C@@]21C (stereo partly drawn) [Compound 3, 3 beta-friedelanol]",inhibition at 10 µM,[4]; [17],21 ± 10%
"C[C@H]1C(=O)CC[C@@H]2[C@]1(C)CC[C@H]1[C@@]2(C)CC[C@@]2(C)[C@@H]3CC(C)(C)CC[C@]3(C)CC[C@]12C [Compound 6, Friedelin]",inhibition at 10 µM,[4]; [17],0%
"COc1cc([C@H]2O[C@H](c3cc(OC)c(OC)c(OC)c3)[C@@H](C)[C@@H]2C)cc(OC)c1OC [Compound 7, (-)-grandisin]",inhibition at 10 µM,[4]; [17],25 ± 36%
"COc1cc(/C=C/C(=O)N2CCC=CC2=O)cc(OC)c1OC [Compound 8, Piplartine]",CC50 at 96 h,"[2]; 96 h, read-out: LC50 L929 cell lines",73.1 ± 75.5 µM
same,"SI (Selectivity Index), bloodstream trypomastigotes","[3]; 24 h, µM data",6.2
same,EC50,[3]; [9],> 50 µM
same,EC50,[3]; [10],5.4 µM
same,EC90,[3]; [11],14.4 ± 5.8 µM
same,EC50,"[3]; read-out: EC50 bloodstream trypomastigotes, 24 h, Y strain",5.38 ± 0.3 µM
same,"SI (Selectivity Index), intracellular forms","[4]; 96 h, µM data",9
same,inhibition at 10 µM,[4]; [12],~50%
same,EC50,[4]; [13],8.1 ± 0.9 µM
same,CC50 at 24 h,"[5]; 24 h, read-out: LC50 cardiac cell cultures",33.1 ± 5.9 µM
C=CC(C)(O)CCC=C(C)C (stereo not shown) [linalool],selectivity index,[8]; cell-derived trypomastigotes,2.9
same,EC50 against cell-derived trypomastigotes,[8],0.31 µg/mL
Oleanolic acid [Compound 4],% of Infection Reduction,"[4]; 10 μM, 96 h of incubation, L929 cell line infected with Tulahuen strain",20 ± 18%
